Experimental data: patent US20150094294A1, “COMPOUNDS AND METHODS FOR TREATING MALARIA” (Cellceutix Corporation, priority 2012, published 2015)
pEC50, pIC50: −log10 of the molar value. In brackets after ≈: the same amount, converted by molar mass.

Key:
Assay type in all cases: cell-based
[1] = Cytotoxicity against 3T3 cells; conditions: mouse, 3T3 cells; read-out: Cytotoxicity 3T3 EC50
in vitro = assay: in vitro
[2] = system: P. falciparum DD2 (chloroquine-resistant); assay: Anti-malarial activity, P. falciparum DD2 culture, 72 hour, DNA content by flow cytometry; conditions: synchronized ring-stage parasites
Protocol: Numerous compounds were screened in cultures of the malaria parasite P. falciparum 3D7 (chloroquine-sensitive) and DD2 (chloroquine-resistant). The compounds were also screened for toxixcity against 3T3 cells, HepG2 cells, and in a hemolysis assay. In brief, P. falciparum parasites were cultured in RPMI 1640 (Invitrogen) supplemented with Albumax II (Invitrogen). For synchronization, schizont stage parasites were magnet purified using a SuperMACS™ II Cell Separation Unit (Miltenyi Biotech). For IC50 determinations, synchronized ring-stage parasites were plated at 0.5% parasitemia and 8% hematocrit in 96-well plates at a total volume of 50 μL. Serial dilutions of 2× concentration of the respective compound, ranging from 2.5 μM to 20 nM, were added to the wells to bring the total volume up to 100 μL and 4% hematocrit. Compounds were assayed for a 72 hour period, after which the cultures were fixed with a solution of 4% paraformaldehyde and 0.08% glutaraldhyde in PBS. The cells were then permeabilized with 0.25% Triton X-100, and SYTOX Green Nucleic Acid Stain (Invitrogen) in PBS was added to a final concentration of 5 μM. DNA content, as an indicator of parasitemia, was analyzed on an Accuri C6 Flow Cytometer with C-Sampler. IC50 curves were generated using GraphPad Prism (GraphPad Software).

[3] = system: P. falciparum 3D7 (chloroquine-sensitive); assay: Anti-malarial activity, P. falciparum 3D7 culture, 72 hour, DNA content by flow cytometry; conditions: synchronized ring-stage parasites
Method in brief: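 Magnet-synchronized ring-stage parasites in RPMI 1640/Albumax II were plated at 0.5% parasitemia, 4% final hematocrit, with compound added as 2× dilutions (2.5 μM to 20 nM) for 72 h. Fixed, Triton-permeabilized cells were stained with SYTOX Green (5 μM final), and DNA content was measured by flow cytometry to derive IC50.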

[4] = Cytotoxicity against HepG2 cells; conditions: human, HepG2 cells; read-out: Cytotoxicity HepG2 EC50
3T3 cells = assay: Cytotoxicity against 3T3 cells
HepG2 cells = assay: Cytotoxicity against HepG2 cells
[5] = Plasmodium falciparum, 3D7, 72 h

EC50 (in vitro) [µg/mL]	pIC50 ([2]; Plasmodium falciparum)	pIC50 [3]	Compound	pEC50 (3T3 cells)	pEC50 (HepG2 cells)	further results
> 1000	6.87	–	N=C(N)NCCc1cccc(NC(=O)c2cc(C(=O)Nc3cccc(CCNC(=N)N)c3)ncn2)c1 [Compound 100]	–	–	pEC50 [1]: 3.11; pIC50 [3, 5]: 7.46; pEC50 [4]: 3.08
583 (≈ 653 µM)	6.95	–	N#Cc1cccc(C(=O)Nc2cc(C(F)(F)F)cc(NC(=O)c3cc(C(=O)Nc4cc(C(F)(F)F)cc(NC(=O)c5cccc(C#N)c5)c4SCCN)ncn3)c2SCCN)c1 [Compound 101]	–	–	pEC50 [1]: 4.13; pIC50 [3, 5]: 7.33; pEC50 [4]: 4.57
2 (≈ 2.06 µM)	6.52	–	N=C(N)NCCCCOc1cc(OCCCCNC(=N)N)c(C(F)(F)F)cc1NC(=O)c1cc(C(=O)Nc2cc(C(F)(F)F)c(OCCCCNC(=N)N)cc2OCCCCNC(=N)N)ncn1 [Compound 104]	–	–	pEC50 [1]: 4.60; pIC50 [3, 5]: 6.70; pEC50 [4]: 4.41
> 1000	6.32	–	CC(C)(C)c1cc(NC(=O)CCCCNS(C)(=O)=O)c(SCCNS(C)(=O)=O)c(NC(=O)c2cccc(C(=O)Nc3cc(C(C)(C)C)cc(NC(=O)CCCCNS(C)(=O)=O)c3SCCNS(C)(=O)=O)c2)c1 [Compound 107]	–	–	pEC50 [1]: < 3.00; pIC50 [3, 5]: 6.53; pEC50 [4]: < 3.00
–	–	6.51	CC(=O)Nc1cc(C(C)(C)C)cc(NC(=O)c2cccc(C(=O)Nc3cc(C(C)(C)C)cc(NC(C)=O)c3SCCN)c2)c1SCCN [Compound 108]	–	–	pIC50 [2]: 6.38
–	–	6.36	CC(C)(C)c1cc(NC(=O)c2cccc(C(=O)Nc3cc(C(C)(C)C)cc(NC(=O)C(N)Cc4ccccc4)c3SCCN)c2)c(SCCN)c(NC(=O)C(N)Cc2ccccc2)c1 (centres unmarked) [Compound 109]	–	–	pIC50 [2]: 6.22
–	–	6.25	CC(C)(C)c1cc(N)c(SCCN)c(NC(=O)c2cccc(C(=O)Nc3cc(C(C)(C)C)cc(N)c3SCCN)c2)c1 [Compound 110]	–	–	pIC50 [2]: 6.13
65 (≈ 67.5 µM)	6.37	–	N=C(N)N1CCC(Oc2cc(OC3CCN(C(=N)N)C3)c(C(F)(F)F)cc2NC(=O)c2cc(C(=O)Nc3cc(C(F)(F)F)c(O[C@@H]4CCN(C(=N)N)C4)cc3O[C@@H]3CCN(C(=N)N)C3)ncn2)C1 (some centres unmarked) [Compound 111]	–	–	pEC50 [1]: 4.49; pIC50 [3, 5]: 6.21; pEC50 [4]: 4.08
–	–	6.19	NCCOc1c(N)cc(C(F)(F)F)cc1NC(=O)c1cccc(C(=O)Nc2cc(C(F)(F)F)cc(N)c2OCCN)c1 [Compound 112]	–	–	pIC50 [2]: 6.00
–	–	6.18	CC(C)(C)c1cc(N)c(SCCCC(=N)N)c(NC(=O)c2cccc(C(=O)Nc3cc(C(C)(C)C)cc(N)c3SCCCC(=N)N)c2)c1 [Compound 113]	–	–	pIC50 [2]: 6.21
–	–	6.13	CN(CCCCC(=O)Nc1cc(C(C)(C)C)cc(NC(=O)c2cccc(C(=O)Nc3cc(C(C)(C)C)cc(NC(=O)CCCCN(C)c4ccccn4)c3SCCN)c2)c1SCCN)c1ccccn1 [Compound 118]	–	–	pIC50 [2]: 5.94
–	–	6.06	N=C(N)NCCCCC(=O)Nc1cc(C(F)(F)F)cc(NC(=O)c2cc(C(=O)Nc3cc(C(F)(F)F)cc(NC(=O)CCCCNC(=N)N)c3SCCN)[nH]n2)c1SCCN [Compound 119]	–	–	pIC50 [2]: 6.16
–	–	–	N=C(N)NCCSc1ccc(NC(=O)Nc2ccc(SCCN)c(C(F)(F)F)c2)cc1C(F)(F)F [Compound 130]	–	–	pIC50 [2]: 6.01
3 (≈ 5.03 µM)	6.61	–	N=C(N)NCCCOc1cc(OCCCNC(=N)N)c(-c2ccc(C(F)(F)F)cc2)cc1-c1ccc(C(F)(F)F)cc1 [Compound 144]	–	–	pEC50 [1]: 4.57; pEC50 [4]: 4.05
6 (≈ 9.14 µM)	6.18	–	NCCCOc1c(-c2cccc(C(F)(F)F)c2)cc(-c2cccc(C(F)(F)F)c2)c(OCCCN)c1-c1cccc(C(F)(F)F)c1 [Compound 145]	–	–	pEC50 [1]: 4.85; pEC50 [4]: 4.55
> 1000	7.09	–	NC1CCC(N2CCc3ccc(NC(=O)c4cc(C(=O)Nc5ccc6c(c5)CCN(C5CCC(N)CC5)CC6)ncn4)cc3CC2)CC1 (centres unmarked) [Compound 148]	–	–	pEC50 [1]: < 3.00; pEC50 [4]: < 3.00
197 (≈ 314 µM)	6.28	–	N=C(N)NCCN1CCc2ccc(NC(=O)c3cc(C(=O)Nc4ccc5c(c4)CCN(CCNC(=N)N)CC5)ncn3)cc2CC1 [Compound 150]	–	–	pEC50 [1]: 3.77; pEC50 [4]: 3.80
> 1000	6.25	–	N=C(N)NCCCCN1CCc2ccc(NC(=O)c3cc(C(=O)Nc4ccc5c(c4)CCN(CCCCNC(=N)N)CC5)ncn3)cc2CC1 [Compound 151]	–	–	pEC50 [1]: 3.33; pEC50 [4]: 3.39
16 (≈ 26.9 µM)	5.93	–	FC(F)(F)c1cc(NC2CCNCC2)ccc1Oc1ccc(Oc2ccc(NC3CCCNC3)cc2C(F)(F)F)cc1 (centres unmarked) [Compound 165]	–	–	pIC50 [3, 5]: 6.04
210 (≈ 205 µM)	6.82	–	CC(=O)NCCSc1c(NC(=O)CCCCNC(=N)N)cc(Br)cc1NC(=O)c1cc(C(=O)Nc2cc(Br)cc(NC(=O)CCCCNC(=N)N)c2SCCNC(C)=O)ncn1 [Compound 169]	–	–	pIC50 [3, 5]: 6.50

EC50 (in vitro) [µg/mL]	pIC50 ([2]; Plasmodium falciparum)	pIC50 [3]	Compound	pEC50 (3T3 cells)	pEC50 (HepG2 cells)	further results
–	6.28	–	COC(=O)CCSc1c(NC(=O)CCCCNC(=N)N)cc(C(F)(F)F)cc1NC(=O)c1cc(C(=O)Nc2cc(C(F)(F)F)cc(NC(=O)CCCCNC(=N)N)c2SCCC(=O)OC)ncn1 [Compound 171]	–	–	pIC50 [3, 5]: 6.05
–	–	7.23	N=C(N)NCCCc1ccc(-c2ccc(-c3ccc(CCCNC(=N)N)cc3)s2)cc1 [Compound 266]	4.42	3.71	–
–	–	7.54	Cn1c(-c2ccc(CCCNC(=N)N)cc2)cnc1-c1ccc(CCCNC(=N)N)cc1 [Compound 267]	3.19	3.08	–
–	–	7.06	O=C(Nc1ccc(SCCNC2=NCCN2)c(C(F)(F)F)c1)Nc1ccc(SCCNC2=NCCN2)c(C(F)(F)F)c1 [Compound 268]	4.13	3.35	–
–	–	6.49	N=C(N)NCCc1cccc(NC(=O)Nc2cccc(CCNC(=N)N)c2)c1 [Compound 269]	< 3.00	< 3.00	–
–	–	7.54	N=C(N)N1CCC(Oc2ccc(NC(=O)Nc3ccc(OC4CCN(C(=N)N)C4)c(C(F)(F)F)c3)cc2C(F)(F)F)C1 (centres unmarked) [Compound 271]	3.76	3.46	–
–	–	7.42	N=C(N)NCCSc1ccc(NC(=O)Nc2ccc(OC3CCN(C(=N)N)C3)c(C(F)(F)F)c2)cc1C(F)(F)F (centres unmarked) [Compound 272]	4.19	3.67	–
–	–	< 5.70	NCCCSc1ccc(NC(=O)Nc2ccc(SCCCN)c(C(F)(F)F)c2)cc1C(F)(F)F [Compound 274]	4.14	3.79	–
–	–	5.77	N=C(N)NCCSc1ccc(NC(=O)Nc2ccc(SCCCN)c(C(F)(F)F)c2)cc1C(F)(F)F [Compound 275]	3.91	3.47	–
–	–	6.24	COc1cc(SCCN)c(C(F)(F)F)cc1NC(=O)Nc1cc(C(F)(F)F)c(SCCN)cc1OC [Compound 277]	4.51	4.19	–
–	–	< 7.00	CC1(C)c2cc(-c3cccc(CCN)c3)ccc2-c2ccc(-c3cccc(CCN)c3)cc21 [Compound 281]	5.70	5.30	–
–	–	< 7.00	CCn1c2ccc(C3CCNCC3)cc2c2cc(C3CCNCC3)ccc21 [Compound 283]	3.82	3.55	–
–	–	7.07	CCn1c2ccc(C3CCN(C(=N)N)CC3)cc2c2cc(C3CCN(C(=N)N)CC3)ccc21 [Compound 285]	3.23	3.09	–
–	–	7.10	N=C(N)N1CC=C(c2ccc3sc4ccc(C5=CCN(C(=N)N)CC5)cc4c3c2)CC1 [Compound 286]	4.08	3.66	–
–	–	< 7.00	CCn1c2ccc(C3=CCN(C(=N)N)CC3)cc2c2cc(C3=CCN(C(=N)N)CC3)ccc21 [Compound 287]	4.08	3.70	–
–	–	< 7.00	N=C(N)NCCCn1c2ccc(C3=CCN(C(=N)N)CC3)cc2c2cc(C3=CCN(C(=N)N)CC3)ccc21 [Compound 289]	3.61	3.37	–
–	–	< 7.00	c1cc2sc3ccc(N4CCNCC4)cc3c2cc1N1CCNCC1 [Compound 291]	3.46	3.39	–
–	–	< 7.00	CCn1c2ccc(N3CCNCC3)cc2c2cc(N3CCNCC3)ccc21 [Compound 293]	3.33	< 3.00	–
–	–	< 7.00	NCCSc1c(NC(=O)c2cc(C(=O)Nc3cc(C(F)(F)F)cc(NC(=O)c4cccs4)c3SCCN)ncn2)cc(C(F)(F)F)cc1NC(=O)c1cccs1 [Compound 311]	3.03	3.03	–

Compound	EC50 (in vitro) [µg/mL]	pIC50 ([2]; Plasmodium falciparum)	pIC50 [3]	pEC50 (3T3 cells)	pEC50 (HepG2 cells)	further results
CCn1c2ccc(C3=CCNCC3)cc2c2cc(C3=CCNCC3)ccc21 [Compound 282]	–	–	< 7.00	4.24	3.90	–
